According to patent US10433548B2, “Biocidal compositions comprising iron chelators” (Arch Chemicals, Inc., priority 2012, dated 2019):
Converted amounts (≈) assume the structure as drawn. Read-outs that look alike come from different tables or passages of the source.

Columns and labels:
Assay in all cases: Minimum Inhibitory Concentration (MIC) test, 96-well microtiter plate
Format in all cases: cell-based
[1] = system: R. subcapitata; design: unit not given here
[2] = system: C. pyrenoidosa; design: unit not given here
[3] = system: P. faveolarum; design: unit not given here
Description: (§1) Activities of antimicrobial compositions of the present invention were tested against a range of typical skin microorganisms in a Minimum Inhibitory Concentration (MIC) test. MICs for the organisms were determined in a standard 96-well microtiter plate assay in Brain Heart Infusion Broth (BHI) for P. acnes; Tryptic Soy Broth (TSB) for the remaining bacteria; Ushijima Broth for M. furfur; Sabouraud Dextrose Broth (SDB) for other fungi. Samples were tested in duplicate on separate plates. For bacteria and fungi plates, samples were serially diluted into double strength media on the microtiter plates. The bacterial or fungal inocula, suspended in sterile deionized water, were then added to the wells in 1:1 ratio to the medium. The final concentration of bacteria in the wells was 5×10^5 CFUs/mL, the final concentration of fungi was 5×10^4 cells or spores/mL. Plates were incubated: anaerobically at 35° C. for 7 days for P. acnes; aerobically at 35° C. for 2 days for the remaining bacteria and aerobically at 35° C. for 7 days for M. furfur; aerobically at 28° C. for 7 days for T. mentagrophytes.

[4] = system: B. subtilis; design: unit not given here
Description: as §1

[5] = system: P. aeruginosa; design: unit not given here
Description: as §1

[6] = system: A. pullulans; design: unit not given here
Description: as §1

[7] = system: A. brasiliensis; design: unit not given here
Description: as §1

[8] = system: P. acnes; settings: for MIC: Cutibacterium acnes
Description: as §1

[9] = system: C. albicans; design: unit not given here
Description: as §1

[10] = system: S. aureus; design: unit not given here
Description: as §1

[11] = system: E. hirae; design: unit not given here
Description: as §1

[12] = system: T. mentagrophytes; design: unit not given here; settings: concentration of ZPT; ZPT alone or with potentiator, Molar Eq (Pot:ZPT) 10:1, 8-HQ-Zn 1:1
Description: as §1

[13] = system: M. furfur; design: unit not given here; settings: concentration of ZPT; ZPT alone or with potentiator, Molar Eq (Pot:ZPT) 10:1, 8-HQ-Zn 1:1
Description: as §1

[14] = system: S. epidermidis; design: unit not given here; settings: concentration of ZPT; ZPT alone or with potentiator, Molar Eq (Pot:ZPT) 10:1, 8-HQ-Zn 1:1
Description: as §1

[15] = concentration of BBIT, BBIT alone or with potentiator, Molar Eq (Pot:BBIT) 10:1
[16] = concentration of BIT, BIT alone or with potentiator, Molar Eq (Pot:BIT) 10:1
[17] = concentration of Propiconazole, alone or with potentiator, Molar Eq (Pot:PROP) 10:1
[18] = concentration of IPBC, IPBC alone or with potentiator, Molar Eq (Pot:IPBC) 10:1
[19] = concentration of ZPT, ZPT alone or with potentiator, Molar Eq (Pot:ZPT) 10:1, 8-HQ-Zn 1:1

Compound	MIC R. subcapitata [1, 15]	MIC C. pyrenoidsa [2, 15]	MIC P. faveolarum [3, 15]	MIC B. subtilis [4, 15]	MIC P. aeruginosa [5, 15]	MIC A. pullulans [6, 15]	MIC A. brasiliensis [7, 15]	MIC R. subcapitata [1, 16]	MIC C. pyrenoidsa [2, 16]	MIC P. faveolarum [3, 16]	MIC B. subtilis [4, 16]	MIC P. aeruginosa [5, 16]	MIC A. pullulans [6, 16]	MIC A. brasiliensis [7, 16]	MIC R. subcapitata [1, 17]	MIC C. pyrenoidsa [2, 17]	MIC P. faveolarum [3, 17]	MIC C. albicans [9, 17]	MIC P. aeruginosa [5, 17]	MIC S. aureus [10, 17]	other results
CCCCn1sc2ccccc2c1=O [BBIT, butylbenzisothiazolinone]	1.25-15	1.25-2.5	1.25-5	1.88-2.5	80.00	2.5-5	1.25-5														
O=c1[nH]sc2ccccc12 [BIT, benzisothiazolinone]								8.13	4.06-8	4.06-16	1.02-4	32.50	4.06-8	16-32.5							
O=C(OOC(=O)c1ccccc1)c1ccccc1 [Benzoyl Peroxide, benzoyl peroxide]																					MIC ([8]; Benzoyl Peroxide without chelator or with chelator, Molar Eq. HBED 10×, 8-HQ 5×, DTPA 10×, Desferrioxamine 1×, read-out: MIC values against P. acnes, Benzoyl Peroxide): 200 µg/mL (≈ 826 µM)
O=C(O)CN(CCN(CC(=O)O)CC(=O)O)CCN(CC(=O)O)CC(=O)O [DTPA, diethylenetriaminepentaacetic acid]	0.94	1.25	0.16	2.50	20.00	0.63	1.25	0.51	0.51	<0.06	2.03	8.13	2.03	16.25							MIC values against P. acnes, Benzoyl Peroxide ([8]; Benzoyl Peroxide without chelator or with chelator, Molar Eq. HBED 10×, 8-HQ 5×, DTPA 10×, Desferrioxamine 1×): 6.25 ppm; MIC values against P. acnes, Salicylic Acid ([8]; Salicylic Acid without chelator or with chelator, Molar Eq. HBED 10×, 8-HQ 5×, DTPA 10×, Desferrioxamine 1×): 3.13 ppm
CC(=O)N(O)CCCCCNC(=O)CCC(=O)N(O)CCCCCNC(=O)CCC(=O)N(O)CCCCCN [Desferrioxamine, desferrioxamine]																					MIC ([8]; read-out: MIC values against P. acnes, Benzoyl Peroxide): 25 µg/mL (≈ 44.6 µM); MIC ([8]; read-out: MIC values against P. acnes, Salicylic Acid): 25 µg/mL (≈ 44.6 µM)
CCCC1COC(Cn2cncn2)(c2ccc(Cl)cc2Cl)O1 (stereo not shown) [Propiconazole, propiconazole]															20.63-41.25	20.63-82.5	20.63-41.25	41.25-100.00	165.00	82.5-165.00	MIC E. hirae [11, 17]: 165.00
O=C(O)c1ccccc1O [Salicylic Acid, salicylic acid]																					MIC ([8]; Salicylic Acid without chelator or with chelator, Molar Eq. HBED 10×, 8-HQ 5×, DTPA 10×, Desferrioxamine 1×, read-out: MIC values against P. acnes, Salicylic Acid): 100 µg/mL (≈ 724 µM)
O=C(CC(=O)C(F)(F)F)c1cccs1.[Zn] [Then-Zn, thenoyl trifluoro acetone zinc salt]								1.02	2.03	0.13	1.52	32.50	4.06	32.50							MIC R. subcapitata [1, 18]: 1.02; MIC C. pyrenoidsa [2, 18]: 0.38; MIC P. faveolarum [3, 18]: 0.51; MIC B. subtilis [4, 18]: 4.06; MIC C. albicans [9, 18]: 2.03; MIC P. aeruginosa [5, 18]: 65.0; MIC S. aureus [10, 18]: 13.25; MIC E. hirae [11, 18]: 8.13
O=c1cccccc1[O-].O=c1cccccc1[O-].[Zn+2] [Tropolone-Zn, zinc(tropolone)2]	0.94	1.25	0.23	0.31	20.00	0.31	0.94	1.02	0.76	0.19	0.13	8.13	0.24	1.02	1.29	2.58	0.32	0.97	41.25	0.64	MIC R. subcapitata [1, 18]: 0.51; MIC R. subcapitata [1, 19]: 0.49; MIC C. pyrenoidsa [2, 18]: 0.51; MIC C. pyrenoidsa [2, 19]: 0.98; MIC T. mentagrophytes [12]: 0.18; MIC P. faveolarum [3, 18]: 0.38; MIC P. faveolarum [3, 19]: 0.05; MIC B. subtilis [4, 18]: 0.51; MIC B. subtilis [4, 17]: 0.64; MIC B. subtilis [4, 19]: 0.24; MIC C. albicans [9, 18]: 1.02; MIC C. albicans [9, 19]: 0.73; MIC M. furfur [13]: 0.73; MIC P. aeruginosa [5, 18]: 32.5; MIC P. aeruginosa [5, 19]: 15.63; MIC S. aureus [10, 18]: 0.51; MIC S. epidermidis [14]: 0.18; MIC E. hirae [11, 18]: 0.25; MIC E. hirae [11, 17]: 0.32; MIC A. brasiliensis [7, 19]: 1.95
glucoheptanoic acid zinc salt [Gluco-heptanoate-Zn]	1.88	1.25	0.16	1.25	80.00	5.00	2.50								0.97	15.47	1.93	82.50	165.00	41.25	MIC B. subtilis [4, 17]: 20.63; MIC E. hirae [11, 17]: 20.63
zinc dihydroxyacetate [DHA-Zn]								2.03	2.03	0.25	1.52	32.50	2.03	6.09	1.29	10.31	1.93	0.64	165.00	41.25	MIC R. subcapitata [1, 19]: 0.98; MIC C. pyrenoidsa [2, 19]: 0.98; MIC T. mentagrophytes [12]: 0.49; MIC P. faveolarum [3, 19]: 0.05; MIC B. subtilis [4, 17]: 30.94; MIC B. subtilis [4, 19]: 0.98; MIC C. albicans [9, 19]: 3.91; MIC M. furfur [13]: 1.95; MIC P. aeruginosa [5, 19]: 31.25; MIC S. epidermidis [14]: 3.91; MIC E. hirae [11, 17]: 20.63; MIC A. brasiliensis [7, 19]: 7.81
